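Assay format: 96-well plates, 48-hour exposure. TGI: total growth inhibition.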
Assays:
Experiment in all cases: DTP human tumour cell line panel, 48 h
[1] = tested on: MOLT-4 leukemia
[2] = tested on: NCI-H522 lung
[3] = tested on: OVCAR-5 ovarian
[4] = tested on: SNB-19 CNS
[5] = tested on: SK-MEL-2 melanoma
[6] = tested on: HOP-92 NSCLC
[7] = tested on: COLO 205 colon
[8] = tested on: U251 CNS
[9] = tested on: MDA-MB-435
[10] = tested on: T-47D breast
[11] = tested on: A498 renal
[12] = tested on: MALME-3M melanoma
[13] = tested on: NCI-H23 lung
[14] = tested on: HCC-2998 colon
[15] = tested on: SF-539 CNS
[16] = tested on: IGROV1 ovarian
[17] = tested on: OVCAR-3 ovarian
[18] = tested on: 786-0 renal
[19] = tested on: SNB-75 CNS
[20] = tested on: A549 NSCLC
[21] = tested on: SW-620 colon
[22] = tested on: DU-145 prostate
[23] = tested on: OVCAR-8 ovarian
[24] = tested on: HL-60(TB) leukemia
[25] = tested on: CAKI-1 renal
[26] = tested on: NCI-H226 lung
[27] = tested on: SR leukemia
[28] = tested on: HCT-15 colon
[29] = tested on: NCI/ADR-RES ovarian
[30] = tested on: HOP-62 NSCLC
[31] = tested on: HS 578T breast
[32] = tested on: SK-MEL-5 melanoma
[33] = tested on: BT-549 breast
[34] = tested on: UACC-257 melanoma
[35] = tested on: SF-268 CNS
[36] = tested on: MDA-N
[37] = tested on: LOX IMVI melanoma
[38] = tested on: KM12 colon
[39] = tested on: HT29 colon
[40] = tested on: EKVX NSCLC
[41] = tested on: SN12C renal
[42] = tested on: ACHN renal
[43] = tested on: UO-31 renal
[44] = tested on: MCF7 breast
[45] = tested on: OVCAR-4 ovarian
[46] = tested on: SF-295 CNS
[47] = tested on: SK-OV-3 ovarian
[48] = tested on: M14 melanoma
[49] = tested on: RPMI-8226 leukemia
[50] = tested on: PC-3 prostate
[51] = tested on: HCT-116 colon
[52] = tested on: MDA-MB-231 breast
[53] = tested on: UACC-62 melanoma
[54] = tested on: SK-MEL-28 melanoma
[55] = tested on: TK-10 renal
[56] = tested on: RXF 393 renal
[57] = tested on: K-562 leukemia
[58] = tested on: NCI-H460 lung
[59] = tested on: CCRF-CEM leukemia

CC1OC(Oc2c(-c3cc(O)c(O)c(O)c3)oc3cc(O)cc(O)c3c2=O)C(O)C(O)C1O (centres undefined)
TGI [1]: > 100 µM
TGI [2]: > 100 µM
TGI [3]: > 100 µM
TGI [4]: > 100 µM
TGI [5]: > 100 µM
TGI [6]: > 100 µM
TGI [7]: > 100 µM
TGI [8]: > 100 µM
TGI [9]: > 100 µM
TGI [10]: > 100 µM
TGI [11]: > 100 µM
TGI [12]: > 100 µM
TGI [13]: > 100 µM
TGI [14]: > 100 µM
TGI [15]: > 100 µM
TGI [16]: > 100 µM
TGI [17]: > 100 µM
TGI [18]: > 100 µM
TGI [19]: > 100 µM
TGI [20]: > 100 µM
TGI [21]: > 100 µM
TGI [22]: > 100 µM
TGI [23]: > 100 µM
TGI [24]: > 100 µM
TGI [25]: > 100 µM
TGI [26]: > 100 µM
TGI [27]: > 100 µM
TGI [28]: > 100 µM
TGI [29]: > 100 µM
TGI [30]: > 100 µM
TGI [31]: > 100 µM
TGI [32]: > 100 µM
TGI [33]: > 100 µM
TGI [34]: > 100 µM
TGI [35]: > 100 µM
TGI [36]: > 100 µM
TGI [37]: > 100 µM
TGI [38]: > 100 µM
TGI [39]: > 100 µM
TGI [40]: > 100 µM
TGI [41]: > 100 µM
TGI [42]: > 100 µM
TGI [43]: > 100 µM
TGI [44]: > 100 µM
TGI [45]: > 100 µM
TGI [46]: > 100 µM
TGI [47]: > 100 µM
TGI [48]: > 100 µM
TGI [49]: > 100 µM
TGI [50]: > 100 µM
TGI [51]: > 100 µM
TGI [52]: > 100 µM
TGI [53]: > 100 µM
TGI [54]: > 100 µM
TGI [55]: > 100 µM
TGI [56]: > 100 µM

C=C1CC2(CCOc3ccc(Cl)cc32)OC1=O (centres undefined)
TGI [1]: 8.29 µM
TGI [2]: 3.42 µM
TGI [3]: 23.4 µM
TGI [4]: 32.6 µM
TGI [5]: 6.29 µM
TGI [6]: 12.4 µM
TGI [7]: 6.16 µM
TGI [8]: 22.5 µM
TGI [9]: 14.1 µM
TGI [10]: 32.3 µM
TGI [11]: 30.2 µM
TGI [13]: 19.5 µM
TGI [14]: 40.3 µM
TGI [57]: > 31.5 µM
TGI [15]: 0.976 µM
TGI [58]: 12.6 µM
TGI [16]: 21.2 µM
TGI [17]: 7.52 µM
TGI [18]: 7.13 µM
TGI [19]: 16.3 µM
TGI [20]: 29.3 µM
TGI [21]: 5.44 µM
TGI [22]: 27.4 µM
TGI [23]: 16.5 µM
TGI [24]: 8.84 µM
TGI [25]: 15.4 µM
TGI [26]: 11.2 µM
TGI [27]: 12.2 µM
TGI [28]: 4.26 µM
TGI [29]: 24.6 µM
TGI [30]: 22.7 µM
TGI [31]: 23.4 µM
TGI [32]: 14.2 µM
TGI [33]: 2.75 µM
TGI [34]: 20.1 µM
TGI [35]: 16.1 µM
TGI [36]: 17.9 µM
TGI [37]: 8.88 µM
TGI [59]: 53 µM
TGI [38]: 28 µM
TGI [39]: 24.2 µM
TGI [40]: 21.5 µM
TGI [41]: 22.1 µM
TGI [42]: 15.4 µM
TGI [43]: 11.2 µM
TGI [44]: 6.16 µM
TGI [45]: 4.33 µM
TGI [46]: 21.5 µM
TGI [47]: 26.2 µM
TGI [48]: 11.1 µM
TGI [49]: 9.35 µM
TGI [50]: 10.6 µM
TGI [51]: 6.98 µM
TGI [52]: 20.1 µM
TGI [53]: 26.1 µM
TGI [54]: 23.3 µM
TGI [55]: 17.5 µM
TGI [56]: 10.7 µM
